Results from patent publication US12577245B2, “Sulfonyl benzamide derivatives as Bcl-2 inhibitors” (ASCENTAGE PHARMA (SUZHOU) CO., LTD., priority 2021, dated 2026).

Tests used:
Bcl-2 WT = Bcl-2 WT (Homo sapiens, UniProt P10415); assay: Bcl-2 WT inhibition, fluorescence polarization (Flu-BIM tracer) binding assay; settings: FP; 20 nM Bcl2, 5 nM Flu-BIM, 1 h incubation; read-out: Bcl-2 w.t. (FP)
RS4; 11Bcl-2-G101V cells = assay: CellTiter-Glo (CTG) cell viability assay in RS4;11-Bcl-2-G101V cells; type: cell-based; settings: 72 h, 10% FBS, 3 days
Method in brief: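 Engineered RS4;11 lines carrying Bcl-2 mutants, 10000 cells/well in RPMI-1640 with 10% FBS, exposed to serially diluted compound for 3 days at 37 °C, 5% CO2. Viability read by CellTiter-Glo luminescence, normalized to vehicle; IC50 calculated.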

MV-4-11 cells = assay: CCK-8 cell viability assay in MV-4-11 cells; type: cell-based; settings: Homo sapiens, MV4-11, 72 h, 10% FBS, 3 days
Method in brief: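 MV-4-11 cells (20000/well) were exposed to serially diluted compound for 3 days at 37 °C. Viability was then measured with CCK-8 (1–4 h, absorbance 450 nm). IC50 was derived from readings normalized to vehicle.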

Chain of Bcl-2 WT (P10415 whole entry): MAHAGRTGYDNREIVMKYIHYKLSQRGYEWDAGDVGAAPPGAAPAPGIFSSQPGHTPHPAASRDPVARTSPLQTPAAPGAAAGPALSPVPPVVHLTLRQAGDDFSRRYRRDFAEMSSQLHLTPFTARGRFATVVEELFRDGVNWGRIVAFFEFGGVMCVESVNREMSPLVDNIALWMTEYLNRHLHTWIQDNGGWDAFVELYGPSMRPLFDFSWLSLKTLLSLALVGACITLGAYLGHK

CC1(C)CCC(CN2CCN(c3ccc(C(=O)NS(=O)(=O)c4ccc(NC[C@H]5COCCO5)c([N+](=O)[O-])c4)c(Oc4cnc5[nH]ccc5c4)c3)CC2)=C(c2cc(CN3CCC(F)(F)CC3)cs2)C1 [Example 32, (S)—N-((4-(((1,4-dioxan-2-yl)methyl)amino)-3-nitrophenyl)sulfonyl)-2-((1H-pyrrolo[2,3-b]pyridin-5-yl)oxy)-4-(4-((2-(4-((4,4-difluoropiperidin-1-yl)methyl)thiophen-2-yl)-4,4-dimethylcyclohex-1-en-1-yl)methyl)piperazin-1-yl)benzamide]
IC50 (Bcl-2 WT): 15.9 nM | IC50 (RS4; 11Bcl-2-G101V cells): 560 nM | IC50 (MV-4-11 cells): 80 nM

CC1(C)CCC(CN2CCN(c3ccc(C(=O)NS(=O)(=O)c4ccc(NC[C@H]5COCCO5)c([N+](=O)[O-])c4)c(Oc4cnc5[nH]ccc5c4)c3)CC2)=C(c2cc(-c3ccc(F)cc3)cs2)C1 [Example 33, (S)—N-((4-(((1,4-dioxan-2-yl)methyl)amino)-3-nitrophenyl)sulfonyl)-2-((1H-pyrrolo[2,3-b]pyridin-5-yl)oxy)-4-(4-((2-(4-(4-fluorophenyl)thiophen-2-yl)-4,4-dimethylcyclohex-1-en-1-yl)methyl)piperazin-1-yl)benzamide]
IC50 (Bcl-2 WT): 23.9 nM | IC50 (RS4; 11Bcl-2-G101V cells): 630 nM | IC50 (MV-4-11 cells): 6 nM

CC1(C)CCC(CN2CCN(c3ccc(C(=O)NS(=O)(=O)c4ccc(NCC5CCOCC5)c([N+](=O)[O-])c4)c(Oc4cnc5[nH]ccc5c4)c3)CC2)=C(c2cc(-c3ccccc3)cs2)C1 [Example 34, 2-((1H-pyrrolo[2,3-b]pyridin-5-yl)oxy)-4-(4-((4,4-dimethyl-2-(4-phenylthiophen-2-yl)cyclohex-1-en-1-yl)methyl)piperazin-1-yl)-N-((3-nitro-4-(((tetrahydro-2H-pyran-4-yl)methyl)amino)phenyl)sulfonyl)benzamide]
IC50 (Bcl-2 WT): 41.1 nM | IC50 (RS4; 11Bcl-2-G101V cells): 1460 nM | IC50 (MV-4-11 cells): 18 nM

CC1(C)CCC(CN2CCN(c3ccc(C(=O)NS(=O)(=O)c4ccc(NCC5CCOCC5)c([N+](=O)[O-])c4)c(Oc4cnc5[nH]ccc5c4)c3)CC2)=C(c2ccsc2-c2ccccc2)C1 [Example 35, 2-((1H-pyrrolo[2,3-b]pyridin-5-yl)oxy)-4-(4-((4,4-dimethyl-2-(2-phenylthiophen-3-yl)cyclohex-1-en-1-yl)methyl)piperazin-1-yl)-N-((3-nitro-4-(((tetrahydro-2H-pyran-4-yl)methyl)amino)phenyl)sulfonyl)benzamide]
IC50 (Bcl-2 WT): 40.4 nM | IC50 (RS4; 11Bcl-2-G101V cells): 6160 nM | IC50 (MV-4-11 cells): 799 nM

CC1(C)CCC(CN2CCN(c3ccc(C(=O)NS(=O)(=O)c4ccc(NC[C@H]5CC[C@@](C)(O)CC5)c([N+](=O)[O-])c4)c(Oc4cnc5[nH]ccc5c4)c3)CC2)=C(c2cc(-c3ccc(F)cc3)cs2)C1 [Example 36, 2-((1H-pyrrolo[2,3-b]pyridin-5-yl)oxy)-4-(4-((2-(4-(4-fluorophenyl)thiophen-2-yl)-4,4-dimethylcyclohex-1-en-1-yl)methyl)piperazin-1-yl)-N-((4-((((1s,4s)-4-hydroxy-4-methylcyclohexyl)methyl)amino)-3-nitrophenyl)sulfonyl)benzamide]
IC50 (Bcl-2 WT): 36.3 nM | IC50 (RS4; 11Bcl-2-G101V cells): 570 nM | IC50 (MV-4-11 cells): 36 nM

CC1(C)CCC(CN2CCN(c3ccc(C(=O)NS(=O)(=O)c4ccc(NC[C@H]5CC[C@](C)(O)CC5)c([N+](=O)[O-])c4)c(Oc4cnc5[nH]ccc5c4)c3)CC2)=C(c2cc(-c3ccc(F)cc3)cs2)C1 [Example 37, 2-((1H-pyrrolo[2,3-b]pyridin-5-yl)oxy)-4-(4-((2-(4-(4-fluorophenyl)thiophen-2-yl)-4,4-dimethylcyclohex-1-en-1-yl)methyl)piperazin-1-yl)-N-((4-((((1r,4r)-4-hydroxy-4-methylcyclohexyl)methyl)amino)-3-nitrophenyl)sulfonyl)benzamide]
IC50 (Bcl-2 WT): 20.5 nM | IC50 (RS4; 11Bcl-2-G101V cells): 290 nM | IC50 (MV-4-11 cells): 11 nM

CC1(C)CCC(CN2CCN(c3ccc(C(=O)NS(=O)(=O)c4ccc(NC[C@H]5COCCO5)c([N+](=O)[O-])c4)c(Oc4cnc5[nH]ccc5c4)c3)CC2)=C(c2cc(-c3ccc(Cl)cc3)cs2)C1 [Example 38, (S)—N-((4-(((1,4-dioxan-2-yl)methyl)amino)-3-nitrophenyl)sulfonyl)-2-((1H-pyrrolo[2,3-b]pyridin-5-yl)oxy)-4-(4-((2-(4-(4-chlorophenyl)thiophen-2-yl)-4,4-dimethylcyclohex-1-en-1-yl)methyl)piperazin-1-yl)benzamide]
IC50 (Bcl-2 WT): 20.2 nM | IC50 (RS4; 11Bcl-2-G101V cells): 1640 nM | IC50 (MV-4-11 cells): 28 nM

CC(C)c1ccccc1-c1csc(C2=C(CN3CCN(c4ccc(C(=O)NS(=O)(=O)c5ccc(NC[C@H]6COCCO6)c([N+](=O)[O-])c5)c(Oc5cnc6[nH]ccc6c5)c4)CC3)CCC(C)(C)C2)c1 [Example 39, (S)—N-((4-(((1,4-dioxan-2-yl)methyl)amino)-3-nitrophenyl)sulfonyl)-2-((1H-pyrrolo[2,3-b]pyridin-5-yl)oxy)-4-(4-((2-(4-(2-isopropylphenyl)thiophen-2-yl)-4,4-dimethylcyclohex-1-en-1-yl)methyl)piperazin-1-yl)benzamide]
IC50 (Bcl-2 WT): 31.6 nM | IC50 (RS4; 11Bcl-2-G101V cells): 2310 nM | IC50 (MV-4-11 cells): 260 nM

CC1(C)CCC(CN2CCN(c3ccc(C(=O)NS(=O)(=O)c4ccc(NC[C@H]5COCCO5)c([N+](=O)[O-])c4)c(Oc4cnc5[nH]ccc5c4)c3)CC2)=C(c2cc(-c3ccc(C(F)(F)F)cc3)cs2)C1 [Example 40, (S)—N-((4-(((1,4-dioxan-2-yl)methyl)amino)-3-nitrophenyl)sulfonyl)-2-((1H-pyrrolo[2,3-b]pyridin-5-yl)oxy)-4-(4-((4,4-dimethyl-2-(4-(4-(trifluoromethyl)phenyl)thiophen-2-yl)cyclohex-1-en-1-yl)methyl)piperazin-1-yl)benzamide]
IC50 (Bcl-2 WT): 40.2 nM | IC50 (RS4; 11Bcl-2-G101V cells): 3550 nM | IC50 (MV-4-11 cells): 45 nM

CC1(C)CCC(CN2CCN(c3ccc(C(=O)NS(=O)(=O)c4ccc(NC[C@H]5CC[C@](C)(O)CC5)c([N+](=O)[O-])c4)c(Oc4cnc5[nH]ccc5c4)c3)CC2)=C(c2cc(-c3ccc(C(F)(F)F)cc3)cs2)C1 [Example 41, 2-((1H-pyrrolo[2,3-b]pyridin-5-yl)oxy)-4-(4-((4,4-dimethyl-2-(4-(4-(trifluoromethyl)phenyl)thiophen-2-yl)cyclohex-1-en-1-yl)methyl)piperazin-1-yl)-N-((4-((((1r,4r)-4-hydroxy-4-methylcyclohexyl)methyl)amino)-3-nitrophenyl)sulfonyl)benzamide]
IC50 (Bcl-2 WT): 44 nM | IC50 (RS4; 11Bcl-2-G101V cells): 3230 nM | IC50 (MV-4-11 cells): 50 nM

CC1(C)CCC(CN2CCN(c3ccc(C(=O)NS(=O)(=O)c4ccc(NC[C@H]5COCCO5)c([N+](=O)[O-])c4)c(Oc4cnc5[nH]ccc5c4)c3)CC2)=C(c2cc(-c3ccc(F)cc3F)cs2)C1 [Example 42, (S)—N-((4-(((1,4-dioxan-2-yl)methyl)amino)-3-nitrophenyl)sulfonyl)-2-((1H-pyrrolo[2,3-b]pyridin-5-yl)oxy)-4-(4-((2-(4-(2,4-difluorophenyl)thiophen-2-yl)-4,4-dimethylcyclohex-1-en-1-yl)methyl)piperazin-1-yl)benzamide]
IC50 (Bcl-2 WT): 38.7 nM | IC50 (RS4; 11Bcl-2-G101V cells): 480 nM | IC50 (MV-4-11 cells): 26 nM
